Measurements taken from paper PMC6150173, “Tryptophan-Containing Cyclic Decapeptides with Activity against Plant Pathogenic Bacteria” (Molecules : A Journal of Synthetic Chemistry and Natural …, 2017).
Peptide text beside a SMILES is read from it.

Key:
Format in all cases: cell-based
[1] = tested on: Pseudomonas syringae pv. syringae EPS94; assay: Antibacterial activity (MIC), in vitro growth inhibition; conditions: Table S1, MIC range
Procedure, shortened: (§1)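 MIC determined by in vitro growth inhibition across 0.8, 1.6, 3.1, 6.2, 12.5, 25 and 50 μM peptide. Strains tested: E. amylovora PMV6076, P. syringae pv. syringae EPS94 and X. axonopodis pv. vesicatoria 2133-2.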

[2] = tested on: Erwinia amylovora PMV6076; assay: as above; conditions: Table S1, MIC range
Procedure, shortened: as §1

[3] = tested on: erythrocyte suspensions of human blood; assay: Hemolytic activity, hemoglobin release; conditions: human blood erythrocytes 5% v/v, absorbance 540 nm, percentage compared to melittin, three replicates; for Hemolysis (%) at 50 µM: peptide 50 μM (table prints 50 µM); for Hemolysis (%) at 125 µM: peptide 125 μM (table prints 125 µM)
Experimental: The hemolytic activity of the compounds was evaluated at 50 and 125 μM by determining hemoglobin release from erythrocyte suspensions of human blood (5% v/v) (Oxoid) using absorbance at 540 nm, as previously described. Three replicates for each peptide concentration were used.

[4] = tested on: Xanthomonas axonopodis pv. vesicatoria 2133-2; conditions: Table S1, MIC range
Procedure, shortened: as §1

SMILES: CC(C)C[C@@H]1NC(=O)[C@H](CCC(N)=O)NC(=O)[C@H](CCCCN)NC(=O)[C@H](CC(C)C)NC(=O)[C@H](CCCCN)NC(=O)[C@H](Cc2c[nH]c3ccccc23)NC(=O)[C@H](CC(C)C)NC(=O)[C@H](CCCCN)NC(=O)[C@H](CCCCN)NC(=O)[C@H](CCCCN)NC1=O [BPC116W, c(LKKKLWKLKQ)] (cyclo(KKKLWKLKQL))
- MIC Pss [1]: 3.1 to 6.2 µM
- MIC Ea [2]: 12.5 to 25 µM
- Hemolysis (%) at 50 µM [3]: 9%
- Hemolysis (%) at 125 µM [3]: 14%
- MIC Xav [4]: 3.1 to 6.2 µM

SMILES: CC(C)C[C@@H]1NC(=O)[C@H](CCCCN)NC(=O)[C@H](Cc2c[nH]c3ccccc23)NC(=O)[C@H](CCCCN)NC(=O)[C@H](CC(C)C)NC(=O)[C@H](CC(C)C)NC(=O)[C@H](CCCCN)NC(=O)[C@H](CCCCN)NC(=O)[C@H](CCC(N)=O)NC(=O)[C@H](CCCCN)NC1=O [BPC118W, c(KKLLKWKLKQ)] (cyclo(KKLLKWKLKQ))
- MIC Pss [1]: 6.2 to 12.5 µM
- MIC Ea [2]: 12.5 to 25 µM
- Hemolysis (%) at 50 µM [3]: 4%
- Hemolysis (%) at 125 µM [3]: 4%
- MIC Xav [4]: 12.5 to 25 µM

SMILES: CC(C)C[C@@H]1NC(=O)[C@H](CCC(N)=O)NC(=O)[C@H](CCCCN)NC(=O)[C@H](CC(C)C)NC(=O)[C@H](CCCCN)NC(=O)[C@H](Cc2c[nH]c3ccccc23)NC(=O)[C@H](CCCCN)NC(=O)[C@H](CC(C)C)NC(=O)[C@H](CCCCN)NC(=O)[C@H](CCCCN)NC1=O [BPC120W, c(LKKLKWKLKQ)] (cyclo(KKLKWKLKQL))
- MIC Pss [1]: 3.1 to 6.2 µM
- MIC Ea [2]: 12.5 to 25 µM
- Hemolysis (%) at 50 µM [3]: 6%
- Hemolysis (%) at 125 µM [3]: 9% and below 20%
- MIC Xav [4]: 1.6 to 3.1 µM

SMILES: CC(C)C[C@@H]1NC(=O)[C@H](CCCCN)NC(=O)[C@H](Cc2c[nH]c3ccccc23)NC(=O)[C@H](CCCCN)NC(=O)[C@H](CCCCN)NC(=O)[C@H](CC(C)C)NC(=O)[C@H](CC(C)C)NC(=O)[C@H](CCCCN)NC(=O)[C@H](CCC(N)=O)NC(=O)[C@H](CCCCN)NC1=O [BPC122W, c(KLLKKWKLKQ)] (cyclo(KKWKLKQKLL))
- MIC Pss [1]: 3.1 to 6.2 µM
- MIC Ea [2]: 12.5 to 25 µM
- Hemolysis (%) at 50 µM [3]: 2%
- Hemolysis (%) at 125 µM [3]: 6%
- MIC Xav [4]: 6.2 to 12.5 µM

SMILES: CC(C)C[C@@H]1NC(=O)[C@H](CCCCN)NC(=O)[C@H](Cc2c[nH]c3ccccc23)NC(=O)[C@H](CCCCN)NC(=O)[C@H](CCCCN)NC(=O)[C@H](CCCCN)NC(=O)[C@H](CC(C)C)NC(=O)[C@H](CC(C)C)NC(=O)[C@H](CCC(N)=O)NC(=O)[C@H](CCCCN)NC1=O [BPC126W, c(LLKKKWKLKQ)] (cyclo(KKKWKLKQLL))
- MIC Pss [1]: 6.2 to 12.5 µM
- MIC Ea [2]: 25 to 50 µM
- Hemolysis (%) at 50 µM [3]: 5%
- Hemolysis (%) at 125 µM [3]: 9%
- MIC Xav [4]: 1.6 to 3.1 µM

SMILES: CC(C)C[C@@H]1NC(=O)[C@H](CCCCN)NC(=O)[C@H](CCCCN)NC(=O)[C@H](CCCCN)NC(=O)[C@H](CCC(N)=O)NC(=O)[C@H](CCCCN)NC(=O)[C@H](CCCCN)NC(=O)[C@H](CC(C)C)NC(=O)[C@H](Cc2c[nH]c3ccccc23)NC(=O)[C@H](CC(C)C)NC1=O [BPC128W, c(KKKLLWLKKQ)] (cyclo(KKKLLWLKKQ))
- MIC Pss [1]: 6.2 to 12.5 µM
- MIC Ea [2]: 12.5 to 25 µM
- Hemolysis (%) at 50 µM [3]: 2%
- Hemolysis (%) at 125 µM [3]: 2%
- MIC Xav [4]: 1.6 to 3.1 µM

SMILES: CC(C)C[C@@H]1NC(=O)[C@H](CCCCN)NC(=O)[C@H](CCCCN)NC(=O)[C@H](CCC(N)=O)NC(=O)[C@H](CCCCN)NC(=O)[C@H](CCCCN)NC(=O)[C@H](CC(C)C)NC(=O)[C@H](Cc2c[nH]c3ccccc23)NC(=O)[C@H](CC(C)C)NC(=O)[C@H](CCCCN)NC1=O [BPC130W, c(KKLKLWLKKQ)] (cyclo(KKLKLWLKKQ))
- MIC Pss [1]: 6.2 to 12.5 µM
- MIC Ea [2]: 12.5 to 25 µM
- Hemolysis (%) at 50 µM [3]: 1%
- Hemolysis (%) at 125 µM [3]: 2%
- MIC Xav [4]: 1.6 to 3.1 µM
